From patent US5395947A, “Platinum(II) complex and processes for preparing the same” (Sunkyong Industries, Ltd., priority 1991, dated 1995)

What was measured:
[1] = tested on: murine leukemia L1210 cells; assay: Growth inhibition test on cultured murine leukemia L1210 cells; format: cell-based; settings: 48 hours, 37° C., Trypan blue viability
Procedure, shortened: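 L1210 cells (1×10^5) exposed to graded compound concentrations in RPMI 1640 with 10% fetal calf serum, 37° C, 5% CO2, 48 h. Viability by 0.17% Trypan blue staining, relative to untreated control cells.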

[2] = tested on: murine leukemia L1210; assay: Antitumor activity test on murine leukemia L1210 in vivo; set-up: species or system male BDF1 mice; settings: days 1, 5, 9
Procedure, shortened: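 Intraperitoneal L1210 model: 1×10^6 cells inoculated i.p. into 6-week-old male BDF1 mice (21±3 g) on day 0, seven per group. Compounds in 0.5% CMC given i.p. on days 1, 5 and 9; vehicle-only controls. T/C % from mean survival time of treated over control.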

[3] = Test for water solubility; format: physicochemical; settings: water
Excerpt: 3. Test for water solubility
A standard plot of UV absorbance(220 nm) vs. concentration was made; and employed to determine water-solubility.
The mixture was then passed through a 0.45 micron disposable membrane filter before dilution and UV measurement.

[4] = tested on: ICR mice; assay: Acute toxicity test; format: in vivo; set-up: Lethality: unit not given here; settings: for Lethality: 10080 min
Procedure, shortened: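 Male and female 7-week-old ICR mice, 6 per group, dosed intraperitoneally. Signs and survival followed for 7 days, with autopsy of animals that died.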

CCC1OC2C[NH2+][Pt-2]3([NH2+]CC2O1)[O]C(=O)C1(CCC1)C(=O)[O]3 [Example 24, cis-cyclobutane-1,1-dicarboxylato[(4R,5R)-4,5-bis(aminomethyl)-2-ethyl-1,3-dioxolane]platinum(II)]
IC50 (concentration required for 50% inhibition of growth) [1]: 0.55 µg/mL | T/C (%) ([2]; 6.2 mg/kg i.p.): 122% | T/C (%) ([2]; 12.5 mg/kg i.p.): 130% | T/C (%) ([2]; 25 mg/kg i.p.): 193% | T/C (%) ([2]; 50 mg/kg i.p.): 208% | T/C (%) ([2]; 100 mg/kg i.p.): 391% | Solubility in water [3]: 12000 µg/mL | Number of dead mice for 7 days ([4]; female, 160 mg/kg i.p.): 0/6 | Number of dead mice, 1st day ([4]; female, 160 mg/kg i.p.): 0/6 | Number of dead mice for 7 days ([4]; female, 208 mg/kg i.p.): 0/6 | Number of dead mice, 1st day ([4]; female, 208 mg/kg i.p.): 0/6 | Number of dead mice for 7 days ([4]; female, 270 mg/kg i.p.): 3/6 | Number of dead mice, 1st day ([4]; female, 270 mg/kg i.p.): 0/6 | Number of dead mice, 2nd day ([4]; female, 270 mg/kg i.p.): 1/6 | Number of dead mice, 3rd day ([4]; female, 270 mg/kg i.p.): 1/5 | Number of dead mice, 5th day ([4]; female, 270 mg/kg i.p.): 1/4 | Lethality ([4]; female, 270 mg/kg i.p.): 50.0 | Number of dead mice for 7 days ([4]; female, 352 mg/kg i.p.): 5/6 | Number of dead mice, 1st day ([4]; female, 352 mg/kg i.p.): 0/6 | Number of dead mice, 3rd day ([4]; female, 352 mg/kg i.p.): 3/6 | Number of dead mice, 4th day ([4]; female, 352 mg/kg i.p.): 2/3 | Lethality ([4]; female, 352 mg/kg i.p.): 83.3 | Number of dead mice for 7 days ([4]; female, 457 mg/kg i.p.): 6/6 | Number of dead mice, 1st day ([4]; female, 457 mg/kg i.p.): 0/6 | Number of dead mice, 2nd day ([4]; female, 457 mg/kg i.p.): 4/6 | Number of dead mice, 3rd day ([4]; female, 457 mg/kg i.p.): 2/2 | Lethality ([4]; female, 457 mg/kg i.p.): 100.0 | Number of dead mice for 7 days ([4]; male, 160 mg/kg i.p.): 0/6 | Number of dead mice, 1st day ([4]; male, 160 mg/kg i.p.): 0/6 | Number of dead mice for 7 days ([4]; male, 208 mg/kg i.p.): 1/6 | Number of dead mice, 1st day ([4]; male, 208 mg/kg i.p.): 0/6 | Number of dead mice, 3rd day ([4]; male, 208 mg/kg i.p.): 1/6 | Lethality ([4]; male, 208 mg/kg i.p.): 16.7 | Number of dead mice for 7 days ([4]; male, 270 mg/kg i.p.): 5/6 | Number of dead mice, 1st day ([4]; male, 270 mg/kg i.p.): 0/6 | Number of dead mice, 2nd day ([4]; male, 270 mg/kg i.p.): 1/6 | Number of dead mice, 3rd day ([4]; male, 270 mg/kg i.p.): 2/5 | Number of dead mice, 4th day ([4]; male, 270 mg/kg i.p.): 1/3 | Number of dead mice, 5th day ([4]; male, 270 mg/kg i.p.): 1/2 | Lethality ([4]; male, 270 mg/kg i.p.): 83.3 | Number of dead mice for 7 days ([4]; male, 352 mg/kg i.p.): 6/6 | Number of dead mice, 1st day ([4]; male, 352 mg/kg i.p.): 1/6 | Number of dead mice, 2nd day ([4]; male, 352 mg/kg i.p.): 2/5 | Number of dead mice, 3rd day ([4]; male, 352 mg/kg i.p.): 2/3 | Number of dead mice, 6th day ([4]; male, 352 mg/kg i.p.): 1/1 | Lethality ([4]; male, 352 mg/kg i.p.): 100.0 | Number of dead mice for 7 days ([4]; male, 457 mg/kg i.p.): 6/6 | Number of dead mice, 1st day ([4]; male, 457 mg/kg i.p.): 0/6 | Number of dead mice, 2nd day ([4]; male, 457 mg/kg i.p.): 2/6 | Number of dead mice, 3rd day ([4]; male, 457 mg/kg i.p.): 4/6 | Lethality ([4]; male, 457 mg/kg i.p.): 100.0

CC1(C)OC2C[NH2+][Pt-2]3([NH2+]CC2O1)[O]C(=O)C1(CCC1)C(=O)[O]3 [Example 26, cis-cyclobutane-1,1-dicarboxylato[(4R,5R)-4,5-bis(aminomethyl)-2,2-dimethyl-1,3-dioxolane]platinum(II)]
IC50 (concentration required for 50% inhibition of growth) [1]: 0.65 µg/mL | T/C (%) ([2]; 6.2 mg/kg i.p.): 124% | T/C (%) ([2]; 12.5 mg/kg i.p.): 170% | T/C (%) ([2]; 25 mg/kg i.p.): 217% | T/C (%) ([2]; 50 mg/kg i.p.): 283% | T/C (%) ([2]; 100 mg/kg i.p.): 317% | Solubility in water [3]: 2000 µg/mL | Number of dead mice for 7 days ([4]; female, 160 mg/kg i.p.): 0/6 | Number of dead mice, 1st day ([4]; female, 160 mg/kg i.p.): 0/6 | Number of dead mice for 7 days ([4]; female, 208 mg/kg i.p.): 0/6 | Number of dead mice, 1st day ([4]; female, 208 mg/kg i.p.): 0/6 | Number of dead mice for 7 days ([4]; female, 270 mg/kg i.p.): 1/6 | Number of dead mice, 1st day ([4]; female, 270 mg/kg i.p.): 0/6 | Number of dead mice, 5th day ([4]; female, 270 mg/kg i.p.): 1/6 | Lethality ([4]; female, 270 mg/kg i.p.): 16.7 | Number of dead mice for 7 days ([4]; female, 352 mg/kg i.p.): 4/6 | Number of dead mice, 1st day ([4]; female, 352 mg/kg i.p.): 0/6 | Number of dead mice, 3rd day ([4]; female, 352 mg/kg i.p.): 2/6 | Number of dead mice, 4th day ([4]; female, 352 mg/kg i.p.): 2/4 | Lethality ([4]; female, 352 mg/kg i.p.): 66.7 | Number of dead mice for 7 days ([4]; female, 457 mg/kg i.p.): 6/6 | Number of dead mice, 1st day ([4]; female, 457 mg/kg i.p.): 0/6 | Number of dead mice, 2nd day ([4]; female, 457 mg/kg i.p.): 4/6 | Number of dead mice, 3rd day ([4]; female, 457 mg/kg i.p.): 2/2 | Lethality ([4]; female, 457 mg/kg i.p.): 100.0 | Number of dead mice for 7 days ([4]; male, 160 mg/kg i.p.): 0/6 | Number of dead mice, 1st day ([4]; male, 160 mg/kg i.p.): 0/6 | Number of dead mice for 7 days ([4]; male, 208 mg/kg i.p.): 1/6 | Number of dead mice, 1st day ([4]; male, 208 mg/kg i.p.): 0/6 | Number of dead mice, 3rd day ([4]; male, 208 mg/kg i.p.): 1/6 | Lethality ([4]; male, 208 mg/kg i.p.): 16.7 | Number of dead mice for 7 days ([4]; male, 270 mg/kg i.p.): 2/6 | Number of dead mice, 1st day ([4]; male, 270 mg/kg i.p.): 0/6 | Number of dead mice, 4th day ([4]; male, 270 mg/kg i.p.): 2/6 | Lethality ([4]; male, 270 mg/kg i.p.): 33.3 | Number of dead mice for 7 days ([4]; male, 352 mg/kg i.p.): 4/6 | Number of dead mice, 1st day ([4]; male, 352 mg/kg i.p.): 0/6 | Number of dead mice, 2nd day ([4]; male, 352 mg/kg i.p.): 1/6 | Number of dead mice, 3rd day ([4]; male, 352 mg/kg i.p.): 3/5 | Lethality ([4]; male, 352 mg/kg i.p.): 66.7 | Number of dead mice for 7 days ([4]; male, 457 mg/kg i.p.): 6/6 | Number of dead mice, 1st day ([4]; male, 457 mg/kg i.p.): 0/6 | Number of dead mice, 2nd day ([4]; male, 457 mg/kg i.p.): 2/6 | Number of dead mice, 3rd day ([4]; male, 457 mg/kg i.p.): 4/4 | Lethality ([4]; male, 457 mg/kg i.p.): 100.0
